Source: the METLIN SMRT retention time set (Domingo-Almenara et al. 2019)

Test: gradient 5% acetonitrile 3 min, to 50% in 2 min, to 85% in 15 min, held 3 min, 100 µL/min
Details: column: Zorbax Extend-C18 2.1 x 50 mm; eluents: water / acetonitrile, 0.1% formic acid
Summary of the method: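 The mobile phases were water and acetonitrile, each with 0.1% formic acid, pumped at 100 μL/min through a Zorbax Extend-C18 column (2.1 × 50 mm, 1.8 μm). Pure standards were injected as mixtures of ~100 molecules and detected by a quadrupole time-of-flight mass spectrometer in positive and negative ionization mode. Retention time came from computationally picked adduct peaks, each inspected by hand.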

| RP-LC retention time [s] | SMILES |
| --- | --- |
| 832 | O=C(c1n[nH]c2ccccc12)N1CCN(c2ccc(C(F)(F)F)cn2)CC1 |
| 675 | Cc1cc(N2CCN(C(=O)Nc3cccc(C(F)(F)F)c3)CC2)nc(N2CCOCC2)n1 |
| 959 | COc1ccc(Cl)cc1C(=O)N1CCC2(CC1)N=C(c1ccc(Br)cc1)NO2 |
| 550 | CCNc1cc(N2CCCC(CCC(=O)NCCN3CCCCCC3)C2)ncn1 (configuration not stated) |
| 630 | Cc1ccccc1OCC(=O)N1CCN(c2cc(C)n3c(C)nnc3n2)CC1 |
| 676 | Cc1ccnc(NC(c2cccs2)c2ccc3cccnc3c2O)c1 (configuration not stated) |
| 1040 | CCc1ccc(NC(=O)Cn2nc(N3CCSCC3)c3ccccc3c2=O)cc1 |
| 1280 | COc1ccc(-c2nnc(-c3cccnc3N3CCN(c4ccccc4C)CC3)o2)cc1 |
| 1040 | CCCC(NC(=O)C1CCCN(c2ccc(=O)n(-c3ccc(C)c(Cl)c3)n2)C1)c1cccs1 (configuration not stated) |
| 870 | Cc1cccc(-c2nc(CNC(=O)CCC(F)(F)F)no2)c1 |
| 855 | COc1cc(OC)cc(C(=O)N2CCN(c3cc(=O)n(C(C)C)c(=O)n3C(C)C)CC2)c1 |
| 686 | CCc1nnc([C@@H]2CC(F)(F)CN2C(=O)c2cc(C)no2)o1 |
| 860 | O=C(Cc1cccc2ccccc12)NCCOc1ccc(F)cc1 |
| 767 | O=C(c1cn(-c2cc(-c3nc(C4CC4)no3)ccn2)cn1)N1CCCC1 |
| 1000 | O=C(NCc1cccc(C(F)(F)F)c1)c1csc(C(=O)NC2CCCC2)n1 |
| 792 | O=C(CNC(=O)C1CCCCC1)Nc1ccc(S(=O)(=O)Nc2ccccc2Cl)cc1 |
| 642 | CCCNc1cc(N2CCC(CCC(=O)NCC(C)C)CC2)ncn1 |

| RP-LC retention time [s] | SMILES |
| --- | --- |
| 671 | Cc1cc(C)n2c(Nc3ccccc3)c(-c3ccccc3)nc2n1 |
| 554 | COc1ccc(OC)c(S(=O)(=O)N2CCc3nc[nH]c3C2)c1 |
| 957 | COc1ccc(S(=O)(=O)N2CCCC(C(=O)Nc3ccc4c(c3)OCO4)C2)cc1C (configuration not stated) |
| 971 | CCOC(=O)C1CCCN(C(=O)CCCn2c(=O)c3cccn3c3ccc(Br)cc32)C1 (configuration not stated) |
| 584 | OC1(c2ccccn2)CCOC2(CCN(Cc3cccc(Cl)c3)CC2)C1 (configuration not stated) |
| 638 | CC(=O)Oc1cc2c(C(=O)NCc3ccccn3)c(C)oc2c2ccccc12 |
| 641 | O=C(c1cnccn1)N1CCC2(CC1)N=C(c1ccccc1)NO2 |
| 871 | Cc1cccc(N2C(=O)CN(CCCc3ccccc3)[C@H]3CS(=O)(=O)C[C@H]32)c1 |
| 789 | CN1C(=O)c2cc(C(=O)NCc3ccccc3Cl)nn2CC1(C)C(=O)NCc1ccccc1 (configuration not stated) |
| 761 | Cc1ccc2c(c1)C(=O)NC1(CCN(C(=O)NCc3ccc(F)cc3)CC1)N2C |
| 967 | CCOc1ccc(N2CC(c3nc(-c4ccccc4F)no3)CC2=O)cc1 (configuration not stated) |
| 649 | Cc1nc(C(=O)N2CCCCCC2c2nnc(C)o2)co1 (configuration not stated) |
| 995 | Cc1nc(Cn2cccc2C(=O)Nc2ccc(Br)c(C)c2)no1 |
| 768 | COCCc1noc(C2CN(S(=O)(=O)c3ccc(C#N)cc3)C2)n1 |
| 1090 | COC(=O)C(NC(=O)Nc1ccc(-c2nc(-c3ccccc3)co2)cc1)c1ccccc1 (configuration not stated) |
| 869 | Cc1ccnn1-c1ccc(SCC(=O)Nc2ccccc2F)nn1 |
| 837 | Cc1cc(C)cc(N2C=NS(=O)(=O)c3cccnc32)c1 |

| SMILES | RP-LC retention time [s] |
| --- | --- |
| CN1C2CCC1CC(OC(=O)C(CO)c1ccccc1)C2 (configuration not stated) | 638 |
| CC(NC(=O)c1c(O)c2sccc2n(Cc2ccccc2)c1=O)c1ccccc1 (configuration not stated) | 1350 |
| CCCc1c(C(=O)O)nnn1Cc1ccccc1Cl | 796 |
